Experimental data taken from patent US20120283293A1, “Methods of neuroprotection involving Prostaglandin E2 EP4 (PGE2 EP4) receptor activation” (The Board of Trustees of the Leland Stanford Junior …, priority 2011, published 2012).

Test system: hippocampus of LPS-treated mice
Test: LPS-induced hippocampal pro-inflammatory gene response in mice (qPCR, microglial morphology)
Type: in vivo, mouse
Protocol: The murine in vivo studies were conducted in accordance with the National Institutes of Health guidelines for the use of experimental animals and protocols were approved by the Institutional Animal Care and Use Committee. C57B6 EP4 floxed mice (Schneider et al., 2004) were kindly provided by Drs. Richard and Matthew Breyer (Vanderbilt University School of Medicine, Nashville, Tenn.), and C57B6 Cd11bCre mice (Boillee et al., 2006) were kindly provided by Dr. G. Kollias (Alexander Fleming Biomedical Sciences Research Center, Vari, Greece) and Dr. Donald Cleveland (UCSD, San Diego, Calif.). All mice were housed in an environment controlled for lighting (12 hour light/dark cycle), temperature, and humidity, with food and water available ad libitum. Cd11bCre:EP4f/f and Cd11bCre:EP4+/+ mice were generated by serial crosses of C57B6 Cd11bCre and EP4f/f and EP4+/+ lines. Male Cd11bCre: EP4f/f and Cd11bCre: EP4+/+ mice were treated with either saline or LPS (5 mg/kg intraperitoneally: n=5-8 per group, 13 months of age). 24 hours after injection, mice were euthanized and brain tissue was harvested and frozen at −80° C. For pharmacological experiments, C57B6 male mice (Jackson Laboratories, Bar Harbor, Me.; n=7 or 8 per group) received an injection of saline or LPS (5 mg/kg, i.p.+/−vehicle or AE1-329 ([…]) (Qin et al., 2007; Nagamatsu et al., 2006). Mice were euthanized 6 hours later, and brain tissue was harvested and frozen at −80° C. For collection of plasma, C57B6 male mice (n=5 per group) received an injection of saline or LPS (5 mg/kg, i.p.)+/−AE1-329 ([…] s.c.) or vehicle. Mice were deeply anesthetized with isoflurane at 3 h and blood was collected in a 1-ml syringe pre-coated with EDTA (250 mM) and placed in EDTA coated tubes. […]
qPCR was carried out as previously described (Liang et al., 2008). […] The mRNA level for each target gene was quantified by SYBR Green-based qPCR using the QuantiTect SYBR Green PCR kit (Qiagen). […] Quantification was performed using the standard curve method. […]

[1] = mice, LPS 5 mg/kg i.p., AE1-329 300 μg/kg s.c., 6 hours

COCc1ccccc1CC[C@H](O)/C=C/[C@H]1[C@H](O)CC(=O)[C@@H]1SCCCSCC(=O)O [AE1-329]
LPS-induced COX-2, iNOS, TNF-α, IL-6 and IL-1β mRNA levels in hippocampus [1]: significantly attenuated
hippocampal expression of NADPH oxidase subunits gp91phox, p67phox and p47phox [1]: trend toward decreased expression
microglial morphological changes in response to LPS (Iba1 staining) (mouse hippocampal CA1, 6 hours after LPS + AE1-329): modestly decreased
